{"source": "paper PMC10492809", "about": "“A Bischler-Napieralski and homo-Mannich sequence enables diversified syntheses of sarpagine alkaloids and analogues” (Nature Communications, 2023)", "format_in_all_cases": "cell-based", "key": {"MDA-MB-231 cells": {"system": "MDA-MB-231 cells", "experiment": "Cell death manner assay (MTT, co-incubation with cell death inhibitors)", "conditions": "Fer-1 / NAC experiment; 15ai 10 μM, Fer-1 10 μM, NAC 5 mM, 72 h; single replicates", "method": "[The source words this procedure for another cell line and reports this cell line under the same test.] To investigate the mechanism of 15ai in cancer cell proliferation inhibition, the manners of cell death were analyzed. The cell apoptosis inhibitor Z-VAD-FMK (Z-VAD), cell necrosis inhibitor Necrostatin-1 (Necro-1), ferroptosis inhibitor Ferrostatin-1 (Fer-1), and ROS inhibitor N-acetylcysteine (NAC) were purchased and stored at −20 °C. A375 cells were seeded with a density of 5000 cells/100 µL/well into 96 well plates. After 12 h, 15ai was added at different concentrations. Following that 10 µM Z-VAD, 10 µM Nerco-1, 10 µM Fer-1, and 5 mM NAC were added and co-incubated with 15ai, respectively, for 72 h. Then, 20 µL MTT solution (5 mg/mL) was added and incubated at 37 °C for an additional 4 h. Then, the supernatant was discarded, and 200 μL DMSO was added to dissolve the precipitate. After 15 min, the absorbance (OD490) was read on a microplate reader (SpectraMax i3x, Austria). In all experiments, three replicate wells were used for each drug concentration. Each assay was performed at least three times."}, "CT26": {"system": "CT26", "experiment": "MTT cell viability assay, CT26", "method": "(§1) All cell lines were cultured at 37 °C with 5% CO2 in a humidified incubator. HeLa cells were grown in MEM (Gibco) supplemented with 10% fetal bovine serum (FBS, Hyclone) and 1% penicillin/streptomycin (Gibco). MIA PaCa-2, MDA-MB-231, A549, MCF-7, A375 and BEAS-2B cells were grown in DMEM (Gibco) supplemented with 10% FBS and 1% penicillin/streptomycin. CT26, and HCT116 cells were grown in RPMI-1640 supplemented with 10% FBS and 1% penicillin/streptomycin. All cell lines were purchased from the National Collection of Authenticated Cell Cultures (China).\n(§2) The antiproliferative activities of the prepared compounds against tested cell lines were evaluated using a standard (MTT)-based colorimetric assay. Cells were plated at a density of 3000 cells/well in 96-well plates and allowed to adhere overnight. Then cells were treated with varying concentrations of synthesized compounds for 72 h. At the end of treatment, 20 μL of thiazolyl blue tetrazolium bromide (MTT) solution (5 mg/mL) was added to each well. Cells were incubated for an additional 4 h at 37 °C and then the medium was removed and replaced with 200 μL of DMSO. The absorbance (OD490) was read on a microplate reader (SpectraMax i3x, Molecular Devices, US). In all experiments, three replicate wells were used for each drug concentration. Each assay was performed at least three times. The IC50 values were calculated by GraphPad Prism 9, which were the mean values derived from three independent experiments."}, "A549": {"system": "A549", "experiment": "MTT cell viability assay, A549", "method": "as §1, §2"}, "[1]": {"experiment": "MTT cytotoxicity towards normal cells, BEAS-2B", "conditions": "human", "method": "as §1, §2"}, "Hela": {"system": "Hela", "experiment": "MTT cell viability assay, Hela", "method": "as §1, §2"}, "MIA PaCa-2": {"system": "MIA PaCa-2", "experiment": "MTT cell viability assay, MIA PaCa-2", "method": "as §1, §2"}, "cancer cell lines": {"system": "cancer cell lines", "experiment": "In vitro cancer cell assays (antiproliferation, cell line not given)", "conditions": "result in words", "method": "as §1, §2"}, "A375": {"system": "A375", "experiment": "MTT cell viability assay, A375", "method": "as §1, §2"}, "MCF-7": {"system": "MCF-7", "experiment": "MTT cell viability assay, MCF-7", "method": "as §1, §2"}, "MDA-MB-231": {"system": "MDA-MB-231", "experiment": "MTT cell viability assay, MDA-MB-231", "method": "as §1, §2"}, "HCT 116": {"system": "HCT 116", "experiment": "MTT cell viability assay, HCT 116", "method": "as §1, §2"}}, "note": "pIC50: −log10 of the molar value. Values joined by “and” are separate entries in the source; they are usually repeats but may differ in a detail not shown here. Equal entries are not always repeated. Where two headings read alike, the source gives them in different places."}
{"smiles": "CC(=O)N[C@@H](CS)C(=O)O", "note": "[NAC, N-acetylcysteine, reference compound]", "values": [{"measurement": "Percentage of viability", "setting": "MDA-MB-231 cells", "value": "108.212% and 96.8182% and 102.046%"}]}
{"smiles": "CC=C1CN2C3CC1C(C=O)C2Cc1c3[nH]c2ccccc12", "note": "(stereo not shown) [vellosimine (4), vellosimine]", "values": [{"measurement": "pIC50", "setting": "CT26; Mus musculus, CT26, 72 h, MTT, 72 h, mean of at least three independent experiments, read-out: IC50 CT26", "value": 4.69}, {"measurement": "pIC50", "setting": "CT26; Mus musculus, CT26, source data sheet, single values of three experiments, read-out: MTT IC50 CT-26", "value": 4.72}, {"measurement": "pIC50", "setting": "CT26; source data sheet, single values of three experiments, read-out: MTT IC50 CT-26", "value": "4.63 and 4.73"}, {"measurement": "pIC50", "setting": "A549; Homo sapiens, A549, 72 h, MTT, 72 h, mean of at least three independent experiments, read-out: IC50 A549", "value": 4.63}, {"measurement": "pIC50", "setting": "A549; Homo sapiens, A549, source data sheet, single values of three experiments, read-out: MTT IC50 A549", "value": 4.65}, {"measurement": "pIC50", "setting": "A549; source data sheet, single values of three experiments, read-out: MTT IC50 A549", "value": "4.58 and 4.67"}, {"measurement": "IC50 at 72 h", "setting": "[1]; BEAS-2B lung epithelial cells (normal cells), source data sheet, single values of three experiments", "value": "> 100", "unit": "µM"}, {"measurement": "CC50 at 72 h", "setting": "[1]; BEAS-2B lung epithelial cells, MTT, 72 h, cytotoxicity towards normal cells, mean of at least three independent experiments", "value": "> 100", "unit": "µM"}, {"measurement": "pIC50", "setting": "Hela; Homo sapiens, HeLa, 72 h, MTT, 72 h, mean of at least three independent experiments, read-out: IC50 Hela", "value": 4.62}, {"measurement": "pIC50", "setting": "Hela; Homo sapiens, HeLa, source data sheet, single values of three experiments, read-out: MTT IC50 Hela", "value": 4.56}, {"measurement": "pIC50", "setting": "Hela; source data sheet, single values of three experiments, read-out: MTT IC50 Hela", "value": 4.65}, {"measurement": "pIC50", "setting": "MIA PaCa-2; Homo sapiens, MIA PaCa-2, 72 h, MTT, 72 h, mean of at least three independent experiments, read-out: IC50 MIA PaCa-2", "value": 4.49}, {"measurement": "pIC50", "setting": "MIA PaCa-2; Homo sapiens, MIA PaCa-2, source data sheet, single values of three experiments, read-out: MTT IC50 MIA PaCa-2", "value": 4.44}, {"measurement": "pIC50", "setting": "MIA PaCa-2; source data sheet, single values of three experiments, read-out: MTT IC50 MIA PaCa-2", "value": "4.53 and 4.49"}, {"measurement": "antiproliferation activity in the in vitro cancer cell assays", "setting": "cancer cell lines", "value": "moderate antiproliferation activity"}, {"measurement": "pIC50", "setting": "A375; Homo sapiens, A-375, 72 h, MTT, 72 h, mean of at least three independent experiments, read-out: IC50 A375", "value": 4.54}, {"measurement": "pIC50", "setting": "A375; Homo sapiens, A-375, source data sheet, single values of three experiments, read-out: MTT IC50 A375", "value": 4.49}, {"measurement": "pIC50", "setting": "A375; source data sheet, single values of three experiments, read-out: MTT IC50 A375", "value": "4.58 and 4.56"}, {"measurement": "pIC50", "setting": "MCF-7; Homo sapiens, MCF7, 72 h, MTT, 72 h, mean of at least three independent experiments, read-out: IC50 MCF-7", "value": 4.41}, {"measurement": "pIC50", "setting": "MCF-7; Homo sapiens, MCF7, source data sheet, single values of three experiments, read-out: MTT IC50 MCF-7", "value": 4.41}, {"measurement": "pIC50", "setting": "MCF-7; source data sheet, single values of three experiments, read-out: MTT IC50 MCF-7", "value": "4.37 and 4.44"}, {"measurement": "pIC50", "setting": "MDA-MB-231; Homo sapiens, MDA-MB-231, 72 h, MTT, 72 h, mean of at least three independent experiments, read-out: IC50 MDA-MB-231", "value": 4.67}, {"measurement": "pIC50", "setting": "MDA-MB-231; Homo sapiens, MDA-MB-231, source data sheet, single values of three experiments, read-out: MTT IC50 MDA-MB-231", "value": 4.64}, {"measurement": "pIC50", "setting": "MDA-MB-231; source data sheet, single values of three experiments, read-out: MTT IC50 MDA-MB-231", "value": "4.74 and 4.65"}, {"measurement": "pIC50", "setting": "HCT 116; Homo sapiens, HCT-116, 72 h, MTT, 72 h, mean of at least three independent experiments, read-out: IC50 HCT 116", "value": 4.56}, {"measurement": "pIC50", "setting": "HCT 116; Homo sapiens, HCT-116, source data sheet, single values of three experiments, read-out: MTT IC50 HCT-116", "value": 4.53}, {"measurement": "pIC50", "setting": "HCT 116; source data sheet, single values of three experiments, read-out: MTT IC50 HCT-116", "value": "4.60 and 4.56"}]}
